US20060211744A1, “3-Pyridinecarboxamide reduces nerve degeneration” (Children's Medical Center, priority 2005, published 2006)
Where two headings read alike, the source gives them in different places.

How the values were obtained:
[1] = tested on: SOD1-G93A transgenic mice; type: in vivo; conditions: for reduction of neural degeneration in ALS mice, behavioral testing: subcutaneous, daily from 10 weeks from birth
[2] = tested on: experimental autoimmune encephalomyelitis (EAE) mice; type: in vivo
From the text: EAE is an inflammatory, demyelinating disease that can be induced by immunizing animals against myelin antigens, and is an accepted animal model for multiple sclerosis (MS) as it has similarities based on both the histopathology and the clinical course of the affected animals. In methods adapted from Lo et al. (J Neurophysiol. 2003 November;90(5):3566-71) we examine the effect of nicotinamide on axonal degeneration within the dorsal columns (cuneate fasciculus) and dorsal corticospinal tracts of the spinal cord.
Induction of EAE. Experiments are carried out in accordance with National Institutes of Health guidelines for the use of laboratory animals. C57/BL6 mice 6-10 wk of age are injected subcutaneously with 200 μl of an emulsion of 300 μg of rat myelin oligodendrocyte glycoprotein (MOG) 35-55 peptide (Keck Biotechnology Center, Yale University) in incomplete Freund's adjuvant (IFA, Sigma, St. Louis, Mo.) supplemented with 250-500 μg of Mycobacterium tuberculosis H37Ra (Difco, Detroit, Mich.). The MOG injection, with mycobacterium supplemented IFA, is repeated in the opposite flank 1 wk later. The mice also receive an injection of 250-500 ng pertussis toxin (Sigma) in 200 μl PBS ip immediately after the first immunization with MOG and then again 48 h later.
Nicotinamide treatment. Beginning on day 10 after the initial MOG injection, control and EAE-induced mice are fed pelleted mice chow incorporating nicotinamide (Sigma) to achieve an average daily consumption of 500 mg/kg nicotinamide. A separate group of EAE mice are fed the identical standard mice chow not containing nicotinamide. Serum nicotinamide levels are measured by HPLC (Chatzimichalakis et al, J Sep Sci. (2004) 27:1181-8) from two mice in each group on day 14 and on the day of either perfusion (days 27-28) or electrophysiological study (days 24-30).
Mice are observed daily for clinical signs and scored on a 0-6 scale, with 0.5 gradations for intermediate scores, as follows: 0, normal without clinical signs; 1, flaccid tail; 2, abnormal righting reflex; 3, partial hindlimb paralysis; 4, complete hindlimb paralysis; 5, moribund; and 6, death.
Electrophysiological recordings. Fourteen adult male C57/BL6 mice are used for assessing spinal cord conduction. Untreated EAE (n=6) and nicotinamide-treated EAE (n=4) mice are studied between days 24 and 30 and age-matched nicotinamide-treated mice (n=4) are used as controls. Mice are anesthetized with halothane, and deep anesthesia is maintained with 1.1% halothane through a tracheal cannula by artificial ventilation (75-80 strokes/min, 0.7 ml/stroke) and verified by the absence of a withdrawal reflex to noxious peripheral pinch. Heartbeats (˜360 beats/min) and body temperature are carefully monitored. Mice are fixed in a stereotaxic apparatus (Kopf Instruments). A midline incision is made through the skin, a laminectomy is performed, and the dura is carefully cut to expose the lower thoracic and lumbar spinal cord regions. Silver wire electrodes (0.01-in diam, A-M Systems) insulated except at the tips are used for stimulation of dorsal column axons at L4-5 and recording of compound action potentials (CAP) at T11-12. Using stereotaxic measurements, the electrodes are positioned 8 mm apart at the surface of the midline spinal cord. Pancuronium bromide (0.3 mg/kg, Sigma) is injected ip to prevent further muscular contractions throughout the experiment. The signal from the recording electrode is amplified with filters set at 300-3,000 Hz (Dam 80, WPI) and collected (CED 1401, Cambridge Electronic Design), and a computer is used for data analysis (Spike 2 program, Cambridge Electronic Design). Single-current pulses (0.05 ms) are applied through a stimulus isolation unit (A365, WPI, and Master-8, AMPI) in increments (0.2, 0.3, 0.6, 0.8, and 1 mA). The amplitude of CAP is calculated as the value between the positive and negative peaks of the biphasic wave. […]

[3] = tested on: transected axons from cultured dorsal root ganglia (DRG); assay: HPLC measurement of NAD and ATP levels in degenerating axons of cultured DRG; type: cell-based
Description: As a first step in examining the role of NAD in Wallerian degeneration, we used an ultra-sensitive high-performance liquid chromatography (HPLC) method (Micheli and Sestini, 1997) to measure the concentration of NAD and its derivatives in degenerating axons. To do this, the acidic lysates were prepared from axonal segments collected at different time points after transecting the axons from cultured dorsal root ganglia (DRG) and resolved by reverse-phase chromatography. 2 hr after axotomy, when the transected axons were still morphologically indistinguishable from their uncut controls, NAD levels began to decrease. This NAD decrease continued over the course of degeneration, reaching about 50% at 4 hr post-axotomy, to almost undetectable levels by 6 hr after axotomy, when early morphological signs of degeneration began to develop. […] By a similar approach of alkaline extraction (Micheli and Sestini, 1997), it has been difficult for us to detect NADH in the axonal extracts, presumably due to the low abundance of NADH and the high NAD/NADH ratio reported in mammalian cells (Zhang et al., 2002, Kasischke et al., 2004, Kannurpatti et al., 2004).
In addition to acting as co-factors for Sirt1 and other NAD-dependent enzymes, NAD is also essential for ATP-synthesizing redox reactions which are involved in glycolysis and oxidative phosphorylation (Shibata et al., 1991). […]

[4] = SOD1-G93A, nicotinamide diet from 7 wk of age
[5] = nicotinamide-treated EAE, days 24-30

NC(=O)c1cccnc1 [nicotinamide, 3-pyridinecarboxamide]
age at bilateral hindlimb paralysis ([1]; SOD1-G93A, both normal diet and nicotinamide diet): 127-157 days of age | age through to which walking capacity is improved (grid walking test) ([1]; SOD1-G93A, nicotinamide diet): 124 days of age | age through to which motor functions are preserved (Rotarod) ([1]; SOD1-G93A, nicotinamide diet (control diet onset 108 days)): 120 days of age | onset of impairment in balance, coordination and muscle strength (Rotarod) [1, 4]: significantly delays the onset of impairment | walking capacity (grid walking test) [1, 4]: significantly improves walking capacity | Rotarod performance score (latency) ([1]; mouse, in vivo): 180 s | body condition scoring (BCS) ([1]; mouse, in vivo): 3 | foot miss scores (grid walking test) ([1]; mouse, in vivo): 0 | general health and neurologic status (lacrimation/salivation, eye blink, ear twitch, pupillary response, whisker orienting reflex) ([1]; mouse, in vivo): no obvious differences | reduction of neural degeneration in ALS mice, behavioral testing ([1]; 125 mg/kg): efficacy | reduction of neural degeneration in ALS mice, behavioral testing ([1]; 500 mg/kg): efficacy | effect on dorsal corticospinal column and dorsal column (cuneate fasciculus) axons ([2]; EAE mice, 27-28 days): significant protective effect | clinical course versus untreated EAE mice ([2]; EAE mice, chow 500 mg/kg daily from day 10): less severe clinical course | clinical score (0-6 scale) ([2]; EAE mice, chow 500 mg/kg daily from day 10, day 27-28 (untreated EAE 3-4)): 1-2 | clinical signs in nicotinamide-treated control mice ([2]; mouse, in vivo): do not display any pathological clinical signs | difference in density of neurofilament-labeled axons, untreated versus nicotinamide-treated controls ([2]; mouse, in vivo): not significant | average CAP amplitude and area versus nicotinamide-treated control group [2, 5]: not significantly different | conduction velocity [2, 5]: maintained close to normal levels | axonal NAD levels after transection (HPLC) ([3]; exogenously applied): delayed the decrease of axonal NAD levels | ATP levels in transected axons separated from their somas ([3]; exogenously provided): delayed the decrease of ATP levels
